Measured values from patent US20030118985A1, “Mouse monoclonal antibody (5-21-3) to human immunodeficiency virus gp41 protein” (priority 1997, published 2003).

Columns and labels:
[1] = system: Rabbit (R) anti-P58-130 serum; experiment: Immunoprecipitation of [125I] synthetic peptides by rabbit anti-P58-130 serum; type: binding; details: for SPECIFIC PRECIPITATION (CPM) by RαP58-130 / x-fold increase of specific over non-specific precipitation, RαP58-130: rabbit anti-P58-130 serum 20 ul/0.2 ml, second antibody precipitation; for x-fold increase of specific over non-specific precipitation, RαP58-130: vs normal rabbit serum
Experimental: (§1) Synthetic peptides were radiolabeled with ^125I (Amersham) by the chloramine T method (N. M. Hunter, “Radioimmunoassay” in D. M. Weir, Ed., Handbook of Experimental Immunology, [Blackwell Scientific Publications, 1973]). Generally, 2-6 ul of 100 mCi/ml ^125I were added to 10-50 ug of peptide in PBS, pH 7.4. Approximately 10 ug of freshly prepared (1 mg/ml in PBS) chloramine T were added to the mixture maintained at 4° C. After 5 min., [^125I]peptide was separated from free ^125I by passage of the reaction mixture through a 3 ml (bed volume) column of Biogel P-6 or P-2, as required. Fractions (200 ul each) containing [^125I]peptide were pooled and diluted into PBS containing 20% fetal calf serum. Rough estimations of ^125I cpm bound to peptide were made by acid precipitation. An aliquot of labeled peptide was diluted into 1 ml of ice cold 50% trichloroacetic acid (TCA) overlaying a 0.45 um filter (made of mixed cellulose esters) set on a scintered glass filter connected to a vacuum apparatus. Precipitated protein was fixed onto the filter by application of vacuum, and filters were washed with ice-cold 50% TCA. Background cpm adhering non-specifically to the filter were estimated by repeating the procedure using a non-precipitating buffer. Amounts of peptide, ^125I, chloramine T, and composition of column eluting buffer were subject to change depending on conditions required to maintain solubility of each peptide.
(§2) Synthetic peptides radiolabeled with ^125I were diluted into PBS (pH 7.4) containing 0.1% Triton X-100 (or other detergents where indicated) and 1.0% BSA, to yield approximately 2.5-5×10^5 acid-precipitable cpm per 0.1 ml. Purified monoclonal IgG 5-21-3 and 10-15-63 were employed in the assay. Monoclonal antibodies were diluted into PBS containing 0.1% Triton X-100 (or other detergents where indicated), 1.0% BSA, and 2% normal mouse serum as a carrier immunoglobulin. Immune rabbit serum (anti-P58-130) was diluted appropriately into the same buffer except that normal rabbit serum (2%) was substituted for normal mouse serum as the carrier immunoglobulin. A reaction mixture comprising 0.1 ml [^125I] peptide (5×10^5 cpm/0.1 ml) and 0.1 ml diluted antibody was incubated 1 hr at 40° C., followed by addition of 0.1 ml of a precipitating antibody, either goat anti-mouse IgG, or goat anti-rabbit IgG, corresponding to the primary antibody. The reaction mixture was incubated 1 hr at 40° C. and then overnight at 4° C. […] Precipitation assays employing Protein A-Sepharose as the precipitating reagent were performed in a similar manner, except that normal sera were omitted from the reaction mixtures.

[2] = system: monoclonal antibody 10-15-63; experiment: Immunoprecipitation of [125I] synthetic peptides by 10-15-63; type: binding, mouse; details: for SPECIFIC PRECIPITATION (CPM) by 10-15-63 / x-fold increase of specific over non-specific precipitation, 10-15-63: 10-15-63 10 μg/0.2 ml, second antibody precipitation; for SPECIFIC PRECIPITATION (CPM) by 10-15-63: PBS, 0.1% Triton X-100, 1.0% BSA, carrier serum; for x-fold increase of specific over non-specific precipitation, 10-15-63: vs normal mouse IgG
Experimental: as §1, §2

[3] = system: monoclonal antibody 5-21-3; experiment: Immunoprecipitation of [125I] synthetic peptides by 5-21-3; type: binding, mouse; details: for SPECIFIC PRECIPITATION (CPM) by 5-21-3 / x-fold increase of specific over non-specific precipitation, 5-21-3: 5-21-3 10 μg/0.2 ml, second antibody precipitation; for SPECIFIC PRECIPITATION (CPM) by 5-21-3: PBS, 0.1% Triton X-100, 1.0% BSA, carrier serum; for x-fold increase of specific over non-specific precipitation, 5-21-3: vs normal mouse IgG
Experimental: as §1, §2

[4] = system: monoclonal antibody 5-21-3; experiment: Immuno-dot blot of synthetic peptides with 5-21-3; type: binding, mouse; details: 25 ug/ml 5-21-3; mild washing procedures
Excerpt: The western Blot procedure described in Example 1 was employed for development of immuno-dot blots using synthetic peptides, except that synthetic peptides were fixed to nitrocellulose by direct application using Drummond lambda pipettes, and air dried prior to blocking with 20% fetal calf serum in PBS (pH 7.4).

[5] = system: binding of antibody 5-21-3 to rp41; experiment: Binding inhibition assay: peptides inhibit binding of 5-21-3 to rp41; set-up: species or system HIV I; details: for Molar Ratio at 50% inhibition of 5-21-3 binding: mean of two experiments, 0.4 pmol 5-21-3 IgG per well
Experimental: Additional evidence for the conformationl nature of the 5-21-3 epitope was obtained using binding inhibition studies, in which synthetic peptides were ranked for their ability to inhibit binding of 5-21-3 to rp41. First, the Fab dimer of an anti-gp41 monoclonal antibody was prepared by conventional methods (Goding et al., supra). Then 100 ul of a 1 mg/ml solution of the Fab dimer in bicarbonate buffer (pH 9.6) was coated onto Immulon II microtiter plates for 1 hr at 37° C. After washing with PBS containing 0.05% Tween 20, the plates were overcoated with 200 ul of 1.0% ovalbumin in bicarbonate buffer (pH 9.6) for 1 hr at 30° C. After washing, 100 ul of rp41 enriched E. coli lysate (as described in Example 3), diluted appropriately in PBS containing 0.05% Tween 20, were allowed to bind to the Fab dimer for 2 hr at 30° C. The plates were washed and stored at 4° C.
Intact monoclonal antibody 5-21-3 IgG (purified from tissue culture fluid supporting growth of the cloned cell line 5-21-3) was titrated against the bound rp41 on the plate, and an antibody concentration was selected which yielded an A492 value of 2.0-3.0. Usually, 0.4 pmol (0.06 ug) of 5-21-3 IgG per microtiter well was employed in these assays. Stock solutions of 5-21-3 IgG were prepared in PBS containing 0.1% Triton X-100 and 0.1% SDS. Dilutions of synthetic peptides were made in the same buffer (SDS was included in these experiments to keep peptides soluble at high concentrations).
The binding inhibition assay was performed by combining 0.15 ml of 1.2 ug/ml 5-21-3 antibody stock solution with 0.15 ml of peptide at a selected peptide concentration, and incubating the reaction mixture 1 hr at room temp. Then 0.1 ml aliquots of each reaction mixture were added to each of two wells in the microtiter tray. After a 1 hr incubation at room temp., the plates were washed, and HRPO conjugated Goat anti-mouse IgG Fc was added for 1 hr at room temp. The plates were washed, and addition of OPD for color development identified the relative amounts of 5-21-3 bound to rp41 in the microtiter wells. The reaction was stopped by addition of 100 ul of 1N H2SO4, and the plates were read on a Dynatech II microtiter plate reader.

Substance	SPECIFIC PRECIPITATION (CPM) by RαP58-130 [1]	x-fold increase of specific over non-specific precipitation, RαP58-130 [1]	SPECIFIC PRECIPITATION (CPM) ([2]; 10-15-63 1.0 μg/ml final)	x-fold increase of specific over non-specific precipitation ([2]; 10-15-63 1.0 μg/ml final)	SPECIFIC PRECIPITATION (CPM) by 10-15-63 [2] [CPM]	x-fold increase of specific over non-specific precipitation, 10-15-63 [2]	SPECIFIC PRECIPITATION (CPM) ([2]; 10-15-63 10.0 μg/ml final)	x-fold increase of specific over non-specific precipitation ([2]; 10-15-63 10.0 μg/ml final)	SPECIFIC PRECIPITATION (CPM) ([2]; 10-15-63 100.0 μg/ml final)	x-fold increase of specific over non-specific precipitation ([2]; 10-15-63 100.0 μg/ml final)	binding of [125I]peptide by 5-21-3 (immunoprecipitation), in words [3]	SPECIFIC PRECIPITATION (CPM) ([3]; 5-21-3 1.0 μg/ml final)	x-fold increase of specific over non-specific precipitation ([3]; 5-21-3 1.0 μg/ml final)	SPECIFIC PRECIPITATION (CPM) by 5-21-3 [3]	x-fold increase of specific over non-specific precipitation, 5-21-3 [3]	SPECIFIC PRECIPITATION (CPM) ([3]; 5-21-3 10.0 μg/ml final)	x-fold increase of specific over non-specific precipitation ([3]; 5-21-3 10.0 μg/ml final)	SPECIFIC PRECIPITATION (CPM) ([3]; 5-21-3 100.0 μg/ml final)	x-fold increase of specific over non-specific precipitation ([3]; 5-21-3 100.0 μg/ml final)	immuno-dot blot reactivity with 5-21-3 [4]	further results
NH2-Asp-Arg-Glu-Ile-Asn-Asn-Tyr-Thr-Ser-Leu-Ile-His-Ser-Leu-Ile-Glu-Glu -Ser-Gln-Asn-Gln-Gln-Glu-Lys-Asn-Glu-Gln-Glu-Leu-Leu-Glu-Leu-Asp-Lys-COOH (H-DREINNYTSLIHSLIEESQNQQEKNEQELLELDK-OH) [P121-154]	310,419 CPM	(24) x-fold	0	(0) x-fold	371	(1.3) x-fold	0	(0) x-fold	0	(0) x-fold	recognized by 5-21-3	0	(0) x-fold	40,717 CPM	(31) x-fold	1,113 CPM	(2.3) x-fold	18,984 CPM	(13) x-fold	faint, diffuse reaction	precipitation of [125I]peptide by rabbit anti-P58-130, in words [1]: strong precipitator; fold less active than P67-154 in binding inhibition [5]: 20 fold; fold restoration of binding inhibition activity relative to P131-154 [5]: 20-65 fold; inhibition of 5-21-3 binding to rp41, in words [5]: potent inhibitor; Molar Ratio at 50% inhibition of 5-21-3 binding [5]: 1,494 pmoles peptide/pmoles 5-21-3
YNYTSLIHSLIEESQNQQEKNEQELLELDKWANLWNWL [P126-162]	0 CPM	(<1) x-fold	0	(0) x-fold	0	(<1) x-fold	0	(0) x-fold	0	(0) x-fold	recognized by 5-21-3	0	(0) x-fold	11,540 CPM	(3.4) x-fold	295 CPM	(1.1) x-fold	4,924 CPM	(1.6) x-fold	additional 5-21-3 reactivity was observed	inhibition of 5-21-3 binding to rp41, in words [5]: roughly equivalent to that of P121-154; Molar Ratio at 50% inhibition of 5-21-3 binding [5]: 1,585 pmoles peptide/pmoles 5-21-3
